Where a name gives a salt, the structure may show the parent alone.
target: MEK; experiment: Cascade assay for inhibitors of the MAP kinase pathway (In Vitro); type: biochemical
Protocol: Incorporation of ^32P into myelin basic protein (MBP) was assayed in the presence of a glutathione S-transferase fusion protein containing p44MAP kinase (GST-MAPK) and a glutathione S-transferase fusion protein containing p45MEK (GST-MEK). The assay solution contained 20 mM HEPES, pH 7.4, 10 mM MgCl2, 1-mM MnCl2, 1 mM EGTA, 50 µM [γ-^32P]ATP, 10 µg GST-MEK, 0.5 µg GST-MAPK and 40 µg MBP in a final volume of 100 µL. […] Compounds were assessed at 10 µM for ability to inhibit incorporation of ^32P.
To ascertain whether compounds were inhibiting GST-MEK or GST MAPK, two additional protocols were employed. In the first protocol, compounds were added to tubes containing GST-MEK, followed by addition of GST-MAPK, MBP and [γ-^32P]ATP.

First: Cc1cc(I)ccc1Nc1cc(F)c([N+](=O)[O-])cc1C(=O)O [Example 213, 4-Fluoro-2-(4-iodo-2-methyl-phenylamino)-5-nitro-benzoic acid]
Second: O=C(O)c1ccc(F)cc1Nc1ccc(I)cc1Br [Example 217, 2-(2-Bromo-4-iodo-phenylamino)-4-fluoro-benzoic acid]
The IC50 of the first is lower: 62 nM for the first, over 1000 nM for the second. The first is the more potent here.

Compared with `Cc1cc(I)ccc1Nc1ccc(Cl)cc1C(=O)N(C)c1ccccc1` [Example 190, 5-Chloro-2-(4-iodo-2-methyl-phenylamino)-N-methyl-N-phenyl-benzamide], “N-(2,3-Dihydroxy-propyl)-3,4-difluoro-2-(4-iodo-2-methyl-phenylamino)-benzamide [Example 54]” is 5.8-fold lower in IC50: 921 nM for the first, 158 nM for the second. The second is the more potent here.

`COc1cc(I)ccc1Nc1c(C(=O)O)ccc(F)c1F` [Example 17, 3,4-Difluoro-2-(4-iodo-2-methoxy-phenylamino)-benzoic acid] and `Cc1cc(I)ccc1Nc1cc(Cl)ccc1C(=O)O` [Example 18, 4-Chloro-2-(4-iodo-2-methyl-phenylamino)-benzoic acid] are within 1.5-fold of each other in IC50: 434 nM for the first, 446 nM for the second.

Going from `Cc1cc(I)ccc1Nc1ccc(F)cc1C(=O)O` [Example 20, 5-Fluoro-2-(4-iodo-2-methyl-phenylamino)-benzoic acid] to `Cc1c(Nc2cc(F)ccc2C(=O)O)ccc(I)c1F` [Example 10, 4-Fluoro-2-(3-fluoro-4-iodo-2-methyl-phenylamino)-benzoic acid], the IC50 falls from 557 nM to 101 nM (5.5-fold). The second is the more potent here.

First: Cc1cc(I)ccc1Nc1ccc([N+](=O)[O-])cc1C(=O)N(C)c1ccccc1 [Example 189, 2-(4-Iodo-2-methyl-phenylamino)-N-methyl-5-nitro-N-phenyl-benzamide]
Second: Cc1cc(I)ccc1Nc1ccc([N+](=O)[O-])cc1C(=O)O [Example 11, 2-(4-Iodo-2-methyl-phenylamino)-5-nitro-benzoic acid]
The IC50 of the first is 6.7-fold higher: 859 nM for the first, 128 nM for the second.

Going from `Cc1ccc(Nc2ccc(I)cc2C)c(C(=O)O)c1` [Example 28, 5-Methyl-2-(4-iodo-2-methyl-phenylamino)-benzoic acid] to “5-Fluoro-N-{3-[4-(2-hydroxy-ethyl)-piperazin-1-yl]-propyl}-2-(4-iodo-2-methyl-phenylamino)-benzamide [Example 90]”, the IC50 falls from 3670 nM to 604 nM (6.1-fold). The second is the more potent here.

Compared with `COC(=O)c1c(F)c(F)c(N2CCN(C)CC2)c(F)c1Nc1ccc(I)cc1C` [Example 221, 2,3,5-Trifluoro-6-(4-iodo-2-methyl-phenylamino)-4-(4-methyl-piperazin-1-yl)-benzoic acid methyl ester dihydrofluoride salt], `Cc1cc(I)ccc1Nc1cc(F)ccc1C(N)=O` [Example 33, 4-Fluoro-2-(4-iodo-2-methyl-phenylamino)-benzamide] is 26-fold higher in IC50: 2 nM for the first, 52 nM for the second. The first is the more potent here.

First: Cc1cc(I)ccc1Nc1ccc(F)cc1C(=O)N(C)c1ccccc1 [Example 194, 5-Fluoro-2-(4-iodo-2-methyl-phenylamino)-N-methyl-N-phenyl-benzamide]
Second: CCN(CC)CCNC(=O)c1cc(Cl)ccc1Nc1ccc(I)cc1C [Example 93, 5-Chloro-N-(2-diethylamino-ethyl)-2-(4-iodo-2-methyl-phenylamino)-benzamide]
The IC50 of the first is 9.5-fold higher: 4950 nM for the first, 521 nM for the second. The second is the more potent here.

Compared with `O=C(O)c1ccc(F)cc1Nc1ccc(I)cc1F` [Example 218, 4-Fluoro-2-(2-fluoro-4-iodo-phenylamino)-benzoic acid], `Cc1cc(I)ccc1Nc1ccc(Br)cc1C(=O)N(C)C` [Example 48, 5-Bromo-2-(4-iodo-2-methyl-phenylamino)-N,N-dimethyl-benzamide] is 38-fold higher in IC50: 51 nM for the first, 1940 nM for the second.

Going from `Cc1cc(I)ccc1Nc1ccc([N+](=O)[O-])cc1C(=O)NC1CCCCC1` [Example 184, N-Cyclohexyl-2-(4-iodo-2-methyl-phenylamino)-5-nitro-benzamide] to `CCN(CC)C(=O)c1cc(Cl)ccc1Nc1ccc(I)cc1C` [Example 47, 5-Chloro-N,N-diethyl-2-(4-iodo-2-methyl-phenylamino)-benzamide], the IC50 rises from 278 nM to 1910 nM (6.9-fold). The first is the more potent here.

`CNC(=O)c1ccc(F)cc1Nc1ccc(I)cc1C` [Example 34, 4-Fluoro-2-(4-iodo-2-methyl-phenylamino)-N-methyl-benzamide] and `O=C(O)c1cc(Cl)ccc1Nc1ccc(I)cc1Cl` [Example 5, 5-Chloro-2-(2-chloro-4-iodo-phenylamino)-benzoic acid] are within 1.5-fold of each other in IC50: 98 nM for the first, 66 nM for the second.

First: Cc1cc(I)ccc1Nc1cc(F)ccc1C(=O)N(C)C [Example 36, 4-Fluoro-2-(4-iodo-2-methyl-phenylamino)-N,N-dimethyl-benzamide]
Second: Cc1c(Nc2cc(F)ccc2C(=O)O)ccc(I)c1Cl [Example 23, 4-Fluoro-2-(3-chloro-4-iodo-2-methyl-phenylamino)-benzoic acid]
The IC50 of the first is 12-fold lower: 129 nM for the first, 1590 nM for the second. The first is the more potent here.

Compared with `Cc1cc(I)ccc1Nc1cccc(Cl)c1C(=O)O` [Example 29, 2-Chloro-6-(4-iodo-2-methyl-phenylamino)-benzoic acid], `O=C(O)c1cc([N+](=O)[O-])ccc1Nc1ccc(I)cc1Br` [Example 14, 2-(2-Bromo-4-iodo-phenylamino)-5-nitro-benzoic acid] is 30-fold lower in IC50: 5330 nM for the first, 179 nM for the second.

First: CCCNC(=O)c1ccc(F)cc1Nc1ccc(I)cc1C [Example 41, 4-Fluoro-2-(4-iodo-2-methyl-phenylamino)-N-propyl-benzamide]
Second: Cc1cc(I)ccc1Nc1ccc([N+](=O)[O-])cc1-c1nnn[nH]1 [Example 209, [4-Nitro-2-(1H-tetrazol-5-yl)phenyl]-(4-iodo-2-methyl-phenyl)-amine]
The IC50 of the first is 1.6-fold lower: 872 nM for the first, 1370 nM for the second. The first is the more potent here.

`Cc1cc(I)ccc1Nc1ccc(Br)cc1C(=O)N1CCC(O)C1` (stereo not shown) [Example 100, [5-Bromo-2-(4-iodo-2-methyl-phenylamino)-phenyl]-(3-hydroxy-pyrrolidin-1-yl)-] and `Cc1cc(I)ccc1Nc1cc(F)ccc1C(=O)NCCCN1CCN(CCO)CC1` [Example 44, 4-Fluoro-N-{3-[4-(2-hydroxy-ethyl)-piperazin-1-yl]-propyl}-2-(4-iodo-2-methyl-phenylamino)-benzamide] are within 1.5-fold of each other in IC50: 1990 nM for the first, 1480 nM for the second.

`Cc1cc(I)ccc1Nc1ccc(Br)cc1C(=O)NCCCN1CCN(CCO)CC1` [Example 92, 5-Bromo-N-{3-[4-(2-hydroxy-ethyl)-piperazin-1-yl]-propyl}-2-(4-iodo-2-methyl-phenylamino)-benzamide] and `Cc1cc(I)ccc1Nc1ccc(Cl)cc1CO` [Example 50, [5-Chloro-2-(4-iodo-2-methyl-phenylamino)-phenyl]-methanol] are within 1.5-fold of each other in IC50: 253 nM for the first, 179 nM for the second.

Compared with “5-Bromo-3,4-difluoro-N-(2-hydroxy-ethyl)-2-(4-iodo-2-methyl-phenylamino)-benzamide [Example 53]”, `Cc1cc(I)ccc1Nc1ccc([N+](=O)[O-])cc1CO` [Example 51, [2-(4-Iodo-2-methyl-phenylamino)-5-nitro-phenyl]-methanol] is 19-fold higher in IC50: 47 nM for the first, 887 nM for the second. The first is the more potent here.

Going from `Cc1cc(I)ccc1Nc1c(C(=O)NN(C)C)cc(Br)c(F)c1F` [Example 223, 5-Bromo-3,4-difluoro-2-(4-iodo-2-methyl-phenylamino)-benzoic acid N',N'-dimethyl-hydrazide] to `Cc1cc(I)ccc1Nc1ccc(Br)cc1C(=O)O` [Example 8, 5-Bromo-2-(4-iodo-2-methyl-phenylamino)-benzoic acid], the IC50 rises from 43 nM to 86 nM (2-fold).

Compared with `O=C(O)c1ccc(F)cc1Nc1ccc(I)cc1Cl` [Example 219, 2-(2-Chloro-4-iodo-phenylamino)-4-fluoro-benzoic acid], `Cc1cc(I)ccc1Nc1ccc(Cl)cc1C(=O)N(C)C` [Example 39, 5-Chloro-2-(4-iodo-2-methyl-phenylamino)-N,N-dimethyl-benzamide] is 4.6-fold higher in IC50: 108 nM for the first, 497 nM for the second.

Going from `O=C(O)c1ccc(F)c(F)c1Nc1c(F)cc(I)cc1F` [Example 214, 2-(2,6-Difluoro-4-iodo-phenylamino)-3,4-difluoro-benzoic acid] to `O=C(O)c1ccc(F)cc1Nc1ccc(I)cc1I` [Example 216, 2-(2,4-Diiodo-phenylamino)-4-fluoro-benzoic acid], the IC50 rises from 303 nM to 1000 nM (3.3-fold).

Going from `Cc1cc(I)ccc1Nc1ccc(Cl)cc1C(=O)NCCO` [Example 31, 5-Chloro-N-(2-hydroxyethyl)-2-(4-iodo-2-methyl-phenylamino)-benzamide] to `CCNC(=O)c1ccc(F)cc1Nc1ccc(I)cc1C` [Example 35, N-Ethyl-4-fluoro-2-(4-iodo-2-methyl-phenylamino)-benzamide], the IC50 falls from 226 nM to 121 nM (1.9-fold). The second is the more potent here.

First: COc1ccc(NC(=O)c2ccc(OC)c([N+](=O)[O-])c2)cc1 [Example 32, 4-Methoxy-N-(4-methoxy-phenyl)-3-nitro-benzamide]
Second: Cc1cc(I)ccc1Nc1c(C(=O)NN2CCN(C)CC2)cc(Br)c(F)c1F [Example 222, 5-Bromo-3,4-difluoro-2-(4-iodo-2-methyl-phenylamino)-N-(4-methyl-piperazin-1-yl)-benazmide]
The IC50 of the first is 3-fold lower: 28 nM for the first, 85 nM for the second.

Going from `Cc1cc(I)ccc1Nc1c(F)cccc1C(=O)O` [Example 16, 3-Fluoro-2-(4-iodo-2-methyl-phenylamino)-benzoic acid] to `Cc1cc(I)ccc1Nc1ccc(Br)cc1CO` [Example 52, [5-Bromo-2-(4-iodo-2-methyl-phenylamino)-phenyl]-methanol], the IC50 rises from 323 nM to 2350 nM (7.3-fold). The first is the more potent here.

`Cc1cc(I)ccc1Nc1ccc(Cl)cc1C(=O)NC1CC1` [Example 192, 5-Chloro-N-cyclopropyl-2-(4-iodo-2-methyl-phenylamino)-benzamide] and `COc1ccc(Nc2ccc(I)cc2)c(C(=O)O)c1` [Example 24, 2-(4-Iodo-phenylamino)-5-methoxy-benzoic acid] are within 1.5-fold of each other in IC50: 1800 nM for the first, 1940 nM for the second.

For `Cc1cc(I)ccc1Nc1ccc(Br)cc1C(N)=O` [Example 38, 5-Bromo-2-(4-iodo-2-methyl-phenylamino)-benzamide], the IC50 was 412 nM.

Source: patent publication EP0993437B1, “2-(4-BROMO OR 4-IODO PHENYLAMINO) BENZOIC ACID DERIVATIVES AND THEIR USE AS MEK INHIBITORS” (Warner-Lambert Company LLC, priority 1997, dated 1999)
